Data as given in US20110218188A1, “SUBSTITUTED (PYRIDYL)-AZINYLAMINE DERIVATIVES AS FUNGICIDES” (priority 2008, published 2011).

Test: Measurement of logP values by HPLC on reversed phase columns (EEC directive 79/831 Annex V.A8)
Format: physicochemical
Conditions: pH 2.7

SMILES | logP
CCCC(C)NC(=O)c1cc(-c2ncnc(Nc3ccc(F)c(Cl)c3)n2)ccn1 (stereo not shown) [B200] | 4.64
CC(C)N(C)C(=O)c1cc(-c2ncnc(Nc3ccc(F)c(Cl)c3)n2)ccn1 [B208] | 3.02
COCC(C1CC1)N(C)C(=O)c1cc(-c2ncnc(Nc3ccc(F)c(Cl)c3)n2)ccn1 (stereo not shown) [B210] | 3.33
CSc1cccc(Nc2ncnc(-c3ccnc(C(=O)N4CCCC4)c3)n2)c1 [B211] | 2.82
COCC(C)NC(=O)c1cc(-c2ncnc(Nc3cccc(SC)c3)n2)ccn1 (stereo not shown) [B212] | 3.31
CSc1cccc(Nc2ncnc(-c3ccnc(C(=O)NC4CC4)c3)n2)c1 [B213] | 3.15
COCCNC(=O)c1cc(-c2ncnc(Nc3cccc(SC)c3)n2)ccn1 [B214] | 2.92
CSc1cccc(Nc2ncnc(-c3ccnc(C(=O)NCCCN4CCCCCC4=O)c3)n2)c1 [B215] | 3.02
CCC(COC)NC(=O)c1cc(-c2ncnc(Nc3cccc(SC)c3)n2)ccn1 (stereo not shown) [B216] | 3.69
CSc1cccc(Nc2ncnc(-c3ccnc(C(=O)NC(C)C)c3)n2)c1 [B217] | 3.53
CCC(C)NC(=O)c1cc(-c2ncnc(Nc3cccc(SC)c3)n2)ccn1 (stereo not shown) [B218] | 3.94
CSc1cccc(Nc2ncnc(-c3ccnc(C(=O)NCC4CC4)c3)n2)c1 [B219] | 3.64
CSc1cccc(Nc2ncnc(-c3ccnc(C(=O)NC4CCC4)c3)n2)c1 [B220] | 3.73
CCCC(C)NC(=O)c1cc(-c2ncnc(Nc3cccc(SC)c3)n2)ccn1 (stereo not shown) [B221] | 4.44
Cc1ccc(Nc2ncnc(-c3ccnc(C(=O)N4CCCC4)c3)n2)cc1Cl [B224] | 3.26
Cc1ccc(Nc2ncnc(-c3ccnc(C(=O)NCCCN4CCCCCC4=O)c3)n2)cc1Cl [B228] | 3.44
CCC(COC)NC(=O)c1cc(-c2ncnc(Nc3ccc(C)c(Cl)c3)n2)ccn1 (stereo not shown) [B229] | 4.24
Cc1ccc(Nc2ncnc(-c3ccnc(C(=O)NC(C)C)c3)n2)cc1Cl [B230] | 4.04
CCNC(=O)c1cc(-c2ncnc(Nc3ccc(C)c(Cl)c3)n2)ccn1 [B231] | 3.55

Further lines, results first:

logP | SMILES
4.49 | CCC(C)NC(=O)c1cc(-c2ncnc(Nc3ccc(C)c(Cl)c3)n2)ccn1 (stereo not shown) [B232]
4.16 | Cc1ccc(Nc2ncnc(-c3ccnc(C(=O)NCC4CC4)c3)n2)cc1Cl [B233]
4.29 | Cc1ccc(Nc2ncnc(-c3ccnc(C(=O)NC4CCC4)c3)n2)cc1Cl [B234]
5 | CCCC(C)NC(=O)c1cc(-c2ncnc(Nc3ccc(C)c(Cl)c3)n2)ccn1 (stereo not shown) [B235]
2.69 | COCc1cccc(Nc2ncnc(-c3ccnc(C(=O)N(C)C(COC)C4CC4)c3)n2)c1 (stereo not shown) [B251]
3.29 | CC(C)N(C)C(=O)c1cc(-c2ncnc(Nc3cccc(OC(F)(F)F)c3)n2)ccn1 [B269]
2.08 | CC(=O)Nc1cccc(Nc2ncnc(-c3ccnc(C(=O)N(C)CCC#N)c3)n2)c1 [B304]
1.94 | CC(=O)Nc1cccc(Nc2ncnc(-c3ccnc(C(=O)N(C)CC4CC4)c3)n2)c1 [B306]
1.81 | CC(=O)Nc1cccc(Nc2ncnc(-c3ccnc(C(=O)N(C)C(C)C)c3)n2)c1 [B309]
3.05 | NC(=S)c1cc(-c2ncnc(Nc3cccc(C(F)F)c3)n2)ccn1 [B320]
2.57 | NC(=S)c1cc(-c2ncnc(Nc3cccc(F)c3)n2)ccn1 [B321]
2.47 | NC(=S)c1cc(-c2ncnc(Nc3ccc(F)cc3)n2)ccn1 [B322]
3.17 | CCCNC(=O)c1cc(-c2ncnc(Nc3cccc(F)c3)n2)ccn1 [B323]
2.09 | NC(=O)c1cc(-c2ncnc(Nc3cccc(F)c3)n2)ccn1 [B324]
3.08 | C=CCNC(=O)c1cc(-c2ncnc(Nc3cccc(F)c3)n2)ccn1 [B325]
3.25 | C#CCN(c1cccc(F)c1)c1ncnc(-c2ccnc(C(=S)N(C)CC)c2)n1 [B345]
2.88 | CCN(CC)C(=O)c1cc(-c2ncnc(Nc3ccc(F)c(F)c3)n2)ccn1 [B351]
3.15 | CC(C)N(C)C(=O)c1cc(-c2ncnc(Nc3cccc(C(F)(F)F)c3)n2)ccn1 [B360]
